Numbered stars: 1 amine (or outer) side, 2 acyl side, 3 side chain; on linkers, the order of the positions; unused ones are H or OH. Bridge positions count the residues as written; N and C are the ends. Square brackets hold non-standard residues; d marks the D form. Peptide text beside a SMILES is read from it. * marks the point of attachment. X10 = O=C(CCc1c[nH]cn1)NCc1cccc(C[C@H](N[*:1])C(=O)[*:2])c1; Bip(4'-COOH) = N[C@@H](Cc1ccc(-c2ccc(C(=O)O)cc2)cc1)C(=O)O; Bip(4'-NHAc) = CC(=O)Nc1ccc(-c2ccc(C[C@H](N)C(=O)O)cc2)cc1; Phe(3-CF3) = N[C@@H](Cc1cccc(C(F)(F)F)c1)C(=O)O; Ala(morpholin-4-yl) = N[C@@H](CN1CCOCC1)C(=O)O; Phe(4-CONH2) = NC(=O)c1ccc(C[C@H](N)C(=O)O)cc1; Phe(4-COOH) = N[C@@H](Cc1ccc(C(=O)O)cc1)C(=O)O; X5 = CS(=O)(=O)NC(=O)C[C@H](N[*:1])C(=O)[*:2]; Bip = N[C@@H](Cc1ccc(-c2ccccc2)cc1)C(=O)O; Phe(3-F) = N[C@@H](Cc1cccc(F)c1)C(=O)O; Phe(3-Me) = Cc1cccc(C[C@H](N)C(=O)O)c1; Abu(3S-NH2) = C[C@H](N)[C@H](N)C(=O)O; Cha = N[C@@H](CC1CCCCC1)C(=O)O; Carboxymethyl = O=C(O)C*; NMeA = CN[C@@H](C)C(=O)O; Orn = NCCC[C@H](N)C(=O)O; Dab = NCC[C@H](N)C(=O)O
Legend:
[1] = molecular target: T1, PE-labeled human PD-L1-Ig binding to Jurkat cell line over-expressing human PD-1 (Jurkat-PD-1) (Homo sapiens, UniProt Q15116); assay: Jurkat-PD-1 Cell Binding High-Content Screening Assay (CBA): Method 2 (presence and absence of tween-20); conditions: Jurkat-PD-1 cells, PE-labeled PD-L1-Ig 20 nM; presence or absence of tween-20 not given; head μM; read-out: CBA Method 2 μM
T1 construct: expressed in transfected cells; host or cells: Jurkat
T1 sequence (Q15116 25-288): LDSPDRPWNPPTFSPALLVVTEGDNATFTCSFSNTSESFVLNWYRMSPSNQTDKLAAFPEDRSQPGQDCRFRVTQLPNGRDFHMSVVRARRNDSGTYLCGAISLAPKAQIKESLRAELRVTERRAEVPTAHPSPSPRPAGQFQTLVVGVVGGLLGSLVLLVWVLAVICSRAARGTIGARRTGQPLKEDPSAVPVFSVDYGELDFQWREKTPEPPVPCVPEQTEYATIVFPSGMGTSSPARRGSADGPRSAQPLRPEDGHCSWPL
Procedure: Jurkat-PD-1 Cell Binding High-Content Screening Assay (CBA): Method 2
Phycoerythrin (PE) was covalently linked to the Ig epitope tag of human PD-L1-Ig and fluorescently labeled PD-L1-Ig was used for binding studies with a Jurkat cell line over-expressing human PD-1 (Jurkat-PD-1). […] 100 nl of compound was added to cells followed by incubation at 37° C. for 2 hours. To interrogate potential issues with compound aggregation, compounds were tested in the presence and absence of tween-20 detergent. […] Then, 5 μl of PE-labeled PD-L1-Ig (20 nM final), diluted in DMEM supplemented with 10% fetal calf serum. […] Data was collected and processed using a Cell Insight NXT High Content Imager and associated software.

[2] = molecular target: T1, PE-labeled human PD-L1-Ig binding to Jurkat cell line over-expressing human PD-1 (Jurkat-PD-1); assay: Jurkat-PD-1 Cell Binding High-Content Screening Assay (CBA): Method 1; conditions: Jurkat-PD-1 cells, PE-labeled PD-L1-Ig; μM; read-out: CBA Method 1 μM
[3] = molecular target: T2, Alexa fluor-647 labeled human PD-L1-Ig binding to Jurkat cell line over-expressing human PD-1 (Homo sapiens, UniProt Q15116); assay: Jurkat-PD-1 Cell Binding High-Content Screening Assay (CBA): Method 3 (Alexa fluor-647 labeled PD-L1-Ig); conditions: Jurkat-PD-1 cells, Alexa fluor-647 labeled PD-L1-Ig 177 nM; head μM; read-out: CBA Method 3 μM
T2 construct: expressed in transfected cells; host or cells: Jurkat
T2 sequence (Q15116 25-288): as above
Method in brief: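 Jurkat cells over-expressing human PD-1 in RPMI/10% FCS were preincubated 2 h at 37 °C with compound, then exposed 1 h to Alexa fluor-647 labeled human PD-L1-Ig (177 nM final). Cells fixed in 4% paraformaldehyde with Hoechst 33342 and binding quantified by high-content imaging.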

Structure (SMILES) | IC50 [1] [µM] | IC50 [2] [µM] | IC50 [3] [µM]
CC(=O)Nc1ccc(-c2ccc(C[C@@H]3NC(=O)[C@H](Cc4cccc(C)c4)NC(=O)[C@H](CC(=O)O)NC(=O)[C@H](Cc4ccc(C(=O)O)cc4)NC(=O)[C@H](CN4CCOCC4)NC(=O)CSC[C@@H](C(=O)N[C@@H](CCN)C(N)=O)NC(=O)[C@H](CCCN)NC(=O)[C@H](C(C)C)NC(=O)[C@H](CC4CCCCC4)NC(=O)[C@H](CCN)NC(=O)[C@@H](CC(C)C)NC(=O)[C@H](C)N(C)C(=O)[C@H](CCC(N)=O)NC(=O)[C@H](Cc4ccc(-c5ccccc5)cc4)NC3=O)cc2)cc1 [Example 5048] ({CH2CO}-[Ala(morpholin-4-yl)][Phe(4-COOH)]D[Phe(3-Me)][Bip(4'-NHAc)][Bip]Q[NMeA][dL][Dab][Cha]V[Orn]C[Dab]-NH2; thioether N-14) | 0.0044 | 0.0048 | –
Cc1cccc(C[C@@H]2NC(=O)[C@H](CC(=O)O)NC(=O)[C@H](Cc3ccc(OCC(=O)O)cc3)NC(=O)[C@H](CCN)NC(=O)CSC[C@@H](C(=O)N[C@@H](CCN)C(N)=O)NC(=O)[C@H](CCC(N)=O)NC(=O)[C@H](C(C)C)NC(=O)[C@H](CC3CCCCC3)NC(=O)[C@H](CCN)NC(=O)[C@@H](CC(C)C)NC(=O)[C@H](C)N(C)C(=O)[C@H](Cc3ccc(C(N)=O)cc3)NC(=O)[C@H](Cc3ccc(-c4ccccc4)cc3)NC(=O)[C@H](Cc3ccc(OCC(=O)O)cc3)NC2=O)c1 [Example 5068] ({CH2CO}-[Dab]Y(Carboxymethyl)D[Phe(3-Me)]Y(Carboxymethyl)[Bip][Phe(4-CONH2)][NMeA][dL][Dab][Cha]VQC[Dab]-NH2; thioether N-14) | 0.0106 | 0.0172 | –
Cc1cccc(C[C@@H]2NC(=O)[C@H](CC(=O)NS(C)(=O)=O)NC(=O)[C@H](Cc3ccc(OCC(=O)O)cc3)NC(=O)[C@H](CN3CCOCC3)NC(=O)CSC[C@@H](C(=O)N[C@@H](CCN)C(N)=O)NC(=O)[C@H](CCCN)NC(=O)[C@H](C(C)C)NC(=O)[C@H](CC3CCCCC3)NC(=O)[C@H](CCN)NC(=O)[C@@H](CC(C)C)NC(=O)[C@H](C)N(C)C(=O)[C@H](Cc3ccc(C(=O)O)cc3)NC(=O)[C@H](Cc3ccc(-c4ccccc4)cc3)NC(=O)[C@H](Cc3ccc(C(=O)O)cc3)NC2=O)c1 [Example 5046] ({CH2CO}-[Ala(morpholin-4-yl)]Y(Carboxymethyl)[X5][Phe(3-Me)][Phe(4-COOH)][Bip][Phe(4-COOH)][NMeA][dL][Dab][Cha]V[Orn]C[Dab]-NH2; thioether N-14) | 0.517 | 0.514 | –
CC(=O)Nc1ccc(-c2ccc(C[C@@H]3NC(=O)[C@H](Cc4cccc(C)c4)NC(=O)[C@H](CC(=O)O)NC(=O)[C@H](Cc4ccc(C(=O)O)cc4)NC(=O)[C@H]([C@H](C)N)NC(=O)CSC[C@@H](C(=O)N[C@@H](CCN)C(N)=O)NC(=O)[C@H](CCCN)NC(=O)[C@H](C(C)C)NC(=O)[C@H](CC4CCCCC4)NC(=O)[C@H](CCN)NC(=O)[C@@H](CC(C)C)NC(=O)[C@H](C)N(C)C(=O)[C@H](CCC(N)=O)NC(=O)[C@H](Cc4ccc(-c5ccccc5)cc4)NC3=O)cc2)cc1 [Example 5051] ({CH2CO}-[Abu(3S-NH2)][Phe(4-COOH)]D[Phe(3-Me)][Bip(4'-NHAc)][Bip]Q[NMeA][dL][Dab][Cha]V[Orn]C[Dab]-NH2; thioether N-14) | 0.0021 | 0.0032 | –
CC(=O)Nc1ccc(-c2ccc(C[C@@H]3NC(=O)[C@H](Cc4cccc(C(F)(F)F)c4)NC(=O)[C@H](CC(=O)O)NC(=O)[C@H](Cc4ccc(C(=O)O)cc4)NC(=O)[C@H](CN4CCOCC4)NC(=O)CSC[C@@H](C(=O)N[C@@H](CCN)C(N)=O)NC(=O)[C@H](CCCN)NC(=O)[C@H](C(C)C)NC(=O)[C@H](CC4CCCCC4)NC(=O)[C@H](CCN)NC(=O)[C@@H](CC(C)C)NC(=O)[C@H](C)N(C)C(=O)[C@H](CCC(N)=O)NC(=O)[C@H](Cc4ccc(-c5ccccc5)cc4)NC3=O)cc2)cc1 [Example 5047] ({CH2CO}-[Ala(morpholin-4-yl)][Phe(4-COOH)]D[Phe(3-CF3)][Bip(4'-NHAc)][Bip]Q[NMeA][dL][Dab][Cha]V[Orn]C[Dab]-NH2; thioether N-14) | 0.0041 | 0.0052 | –
Cc1cccc(C[C@@H]2NC(=O)[C@H](CC(=O)O)NC(=O)[C@H](Cc3ccc(OCC(=O)O)cc3)NC(=O)[C@H](Cc3cccc(CNC(=O)CCc4c[nH]cn4)c3)NC(=O)CSC[C@@H](C(=O)N[C@@H](CCN)C(N)=O)NC(=O)[C@H](CCCN)NC(=O)[C@H](C(C)C)NC(=O)[C@H](CC3CCCCC3)NC(=O)[C@H](CCN)NC(=O)[C@@H](CC(C)C)NC(=O)[C@H](C)N(C)C(=O)[C@H](CCC(N)=O)NC(=O)[C@H](Cc3ccc(-c4ccccc4)cc3)NC(=O)[C@H](Cc3ccc(C(=O)O)cc3)NC2=O)c1 [Example 5035] ({CH2CO}-[X10]Y(Carboxymethyl)D[Phe(3-Me)][Phe(4-COOH)][Bip]Q[NMeA][dL][Dab][Cha]V[Orn]C[Dab]-NH2; thioether N-14) | 0.0035 | 0.0042 | –
Cc1cccc(C[C@@H]2NC(=O)[C@H](CC(=O)O)NC(=O)[C@H](Cc3ccc(C(=O)O)cc3)NC(=O)[C@H](CN3CCOCC3)NC(=O)CSC[C@@H](C(=O)N[C@@H](CCN)C(N)=O)NC(=O)[C@H](CCCN)NC(=O)[C@H](C(C)C)NC(=O)[C@H](Cc3cccc(F)c3)NC(=O)[C@H](CCN)NC(=O)[C@@H](CC(C)C)NC(=O)[C@H](C)N(C)C(=O)[C@H](CCC(N)=O)NC(=O)[C@H](Cc3ccc(-c4ccccc4)cc3)NC(=O)[C@H](Cc3ccc(-c4ccc(C(=O)O)cc4)cc3)NC2=O)c1 [Example 5060] ({CH2CO}-[Ala(morpholin-4-yl)][Phe(4-COOH)]D[Phe(3-Me)][Bip(4'-COOH)][Bip]Q[NMeA][dL][Dab][Phe(3-F)]V[Orn]C[Dab]-NH2; thioether N-14) | 0.0093 | 0.0068 | –
COC[C@@H]1NC(=O)CSC[C@@H](C(=O)N[C@@H](CCN)C(N)=O)NC(=O)[C@H](CCCN)NC(=O)[C@H](C(C)C)NC(=O)[C@H](CC2CCCCC2)NC(=O)[C@H](CCN)NC(=O)[C@@H](CC(C)C)NC(=O)[C@H](C)N(C)C(=O)[C@H](CCC(N)=O)NC(=O)[C@H](Cc2ccc(-c3ccccc3)cc2)NC(=O)[C@H](Cc2ccc(-c3ccc(NC(C)=O)cc3)cc2)NC(=O)[C@H](Cc2cccc(C)c2)NC(=O)[C@H](CC(=O)O)NC(=O)[C@H](Cc2ccc(OCC(=O)O)cc2)NC1=O [Example 5056] ({CH2CO}-S(Me)Y(Carboxymethyl)D[Phe(3-Me)][Bip(4'-NHAc)][Bip]Q[NMeA][dL][Dab][Cha]V[Orn]C[Dab]-NH2; thioether N-14) | 0.0095 | 0.01 | –
CC(=O)Nc1ccc(-c2ccc(C[C@@H]3NC(=O)[C@H](Cc4cccc(C)c4)NC(=O)[C@H](CC(=O)O)NC(=O)[C@H](Cc4ccc(C(=O)O)cc4)NC(=O)[C@H](CC4CCCCC4)NC(=O)CSC[C@@H](C(=O)N[C@@H](CCN)C(N)=O)NC(=O)[C@H](CCC(N)=O)NC(=O)[C@H](C(C)C)NC(=O)[C@H](CC4CCCCC4)NC(=O)[C@H](CCN)NC(=O)[C@@H](CC(C)C)NC(=O)[C@H](C)N(C)C(=O)[C@H](Cc4ccc(C(=O)O)cc4)NC(=O)[C@H](Cc4ccc(-c5ccccc5)cc4)NC3=O)cc2)cc1 [Example 5200] ({CH2CO}-[Cha][Phe(4-COOH)]D[Phe(3-Me)][Bip(4'-NHAc)][Bip][Phe(4-COOH)][NMeA][dL][Dab][Cha]VQC[Dab]-NH2; thioether N-14) | – | – | 0.02
